Test systems include HS 578T breast; HT29 colon; M14 melanoma; MCF7 breast; MDA-MB-435; NCI-H522 lung; NCI/ADR-RES ovarian; OVCAR-8 ovarian; TK-10 renal; UACC-257 melanoma.
What all share (assay): NCI-60 cell line screen, 48 h

In PubChem BioAssay (NCI) one finds TGI and GI50 data, which are given here for 14 molecules.

Several values for one entry are separate records, joined by “and”; a condition that tells them apart may be missing. Equal values may be shown once.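 Five concentrations, 48 hours, 96-well plates. GI50 marks 50% less growth. TGI: concentration producing complete growth inhibition.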 Where only a bound is given, the exact number is not on record here.

As to `Cc1ccc(S(=O)(=O)C2=C(C(C)C)N=NC2(C)C)cc1`, the TGI in the assay on HS 578T breast, in the assay on HT29 colon, in the assay with M14 melanoma, in the assay with MCF7 breast, with MDA-MB-435 and in the assay with NCI-H522 lung was > 100 µM throughout. In addition, the TGI with NCI/ADR-RES ovarian, with OVCAR-8 ovarian, in the assay with TK-10 renal and in the assay on UACC-257 melanoma was > 100 µM throughout.

`COc1ccc2nc(-c3ccccc3)c(=O)[nH]c2c1`: the TGI in the assay on HS 578T breast, in the assay with HT29 colon, in the assay on M14 melanoma, with MCF7 breast, in the assay with MDA-MB-435 and in the assay with NCI-H522 lung was > 100 µM throughout. The TGI in the assay with NCI/ADR-RES ovarian, in the assay with OVCAR-8 ovarian, with TK-10 renal and in the assay on UACC-257 melanoma was > 100 µM throughout.

On to `O=C1C(Br)=CC2(C=C1Br)CCNC1=C2C(=O)c2ncccc2C1=O`, for which the TGI was 5.34 µM in the assay on HS 578T breast; 4.56 µM with HT29 colon; 3.01 µM in the assay with M14 melanoma; 2.78 µM with MCF7 breast; 0.354 µM with MDA-MB-435; 1.06 µM in the assay with NCI-H522 lung. For the same molecule, the TGI was 6.17 µM in the assay on NCI/ADR-RES ovarian, 4.5 µM in the assay on OVCAR-8 ovarian, 4.73 µM in the assay with TK-10 renal and 1.89 µM with UACC-257 melanoma.

As for `CC1(C)O[C@H]2OC(CO)C(N=[N+]=[N-])[C@H]2O1` (stereo partly drawn), the TGI in the assay on HS 578T breast, with HT29 colon, in the assay with M14 melanoma, with MCF7 breast, in the assay on MDA-MB-435 and in the assay on NCI-H522 lung was > 100 µM throughout. The TGI in the assay with NCI/ADR-RES ovarian, with OVCAR-8 ovarian, in the assay on TK-10 renal and in the assay on UACC-257 melanoma was > 100 µM in each case.

In the case of `N[C@H](Cc1ccc2oc3cc(=O)c4ccccc4c-3nc2c1)C(=O)O`, the TGI is > 100 µM in the assay with HS 578T breast; > 100 µM with HT29 colon; 39.9 µM in the assay on M14 melanoma; 65 µM with MCF7 breast; 30.3 µM with MDA-MB-435; > 100 µM with NCI-H522 lung. Besides, the TGI in the assay on NCI/ADR-RES ovarian, in the assay on OVCAR-8 ovarian, in the assay on TK-10 renal and with UACC-257 melanoma was > 100 µM throughout.

In the case of `C/C=C\C(CC(=O)NCC(=O)c1c[nH]c2ccccc12)CC(=O)OC` (stereo not drawn), the TGI in the assay with HS 578T breast, with HT29 colon, in the assay on M14 melanoma, in the assay on MCF7 breast, in the assay on MDA-MB-435 and in the assay with NCI-H522 lung was > 100 µM in each case. The TGI in the assay with NCI/ADR-RES ovarian, with OVCAR-8 ovarian, with TK-10 renal and with UACC-257 melanoma was > 100 µM throughout.

With `CCOC(=O)C(NC(=O)c1ccccc1)(N1CCN(c2cc3c(cc2F)c(=O)c(C(=O)O)cn3C2CC2)CC1)C(F)(F)F` (stereo not drawn), the TGI in the assay with HS 578T breast was 66.3 µM; in the assay on M14 melanoma it was 40.7 µM; with MDA-MB-435, 45.2 µM; with OVCAR-8 ovarian it was > 100 µM.

For the molecule `COc1ccc(N2C(=O)C(=O)N(c3ccc(N=Nc4ccccc4)cc3)C2=S)cc1`, the TGI in the assay on HS 578T breast was > 100 µM; with HT29 colon it was 37.1 µM; in the assay with MDA-MB-435, 48.9 µM; with NCI-H522 lung, 20.2 µM; with NCI/ADR-RES ovarian it was 35.9 µM; with OVCAR-8 ovarian, 35.6 µM. For the same molecule, the figures for the TGI with TK-10 renal and in the assay on UACC-257 melanoma were 50.4 µM and 34.3 µM, respectively.

For the molecule `Cc1cc(C)nc(NC(P(=O)(O)O)P(=O)(O)O)n1`, the TGI in the assay on HS 578T breast, in the assay on HT29 colon, with M14 melanoma, in the assay on MCF7 breast, in the assay with NCI-H522 lung and with NCI/ADR-RES ovarian was > 100 µM in each case. Further, the TGI with OVCAR-8 ovarian, in the assay on TK-10 renal and with UACC-257 melanoma was > 100 µM throughout.

With `CC(NC(=O)c1c(O)[nH]c(=S)[nH]c1=O)c1ccc([N+](=O)[O-])cc1` (stereo not drawn), the TGI in the assay with HS 578T breast, in the assay on HT29 colon, with M14 melanoma, in the assay on MCF7 breast, in the assay with MDA-MB-435 and with TK-10 renal was > 100 µM in each case. Besides, in the assay on UACC-257 melanoma, the TGI is > 100 µM.

As to `CC(=O)c1ccc2c(c1)C(=O)c1sc(C(C)=O)cc1C2=O`, the GI50 in the assay with HS 578T breast was 2.21 µM; with HT29 colon, 2.71 µM; with MDA-MB-435 it was 0.176 µM; with NCI-H522 lung, 0.222 µM; in the assay on NCI/ADR-RES ovarian it was 0.326 µM; in the assay with OVCAR-8 ovarian it was 0.587 µM. The TGI in the assay with HS 578T breast is 50 µM and 7.03 µM; in the assay on HT29 colon it was 2.82 µM and 9.47 µM; with M14 melanoma, 2.21 µM; in the assay on MCF7 breast, 4.7 µM; in the assay on MDA-MB-435, 2.63 µM and 0.33 µM; in the assay with NCI-H522 lung it was 1.7 µM and 0.585 µM. Besides, the TGI with NCI/ADR-RES ovarian was 2.56 µM and 1.93 µM; with OVCAR-8 ovarian, 1.69 µM and 2.67 µM; in the assay on TK-10 renal, 5.55 µM.

As to `O=C(Cn1c2ccc(Br)cc2c2nc3ccccc3nc21)NNC(=S)NC1CCCCC1`, the TGI in the assay on HS 578T breast was determined as 52.9 µM; with HT29 colon, 28.9 µM; in the assay with M14 melanoma, 24.2 µM; in the assay on MDA-MB-435 it was 34.2 µM; in the assay on NCI-H522 lung, 27.6 µM; with NCI/ADR-RES ovarian it was 34.5 µM. Moreover, the TGI in the assay with OVCAR-8 ovarian is 27.8 µM; in the assay on TK-10 renal, 28.7 µM; in the assay with UACC-257 melanoma, 30 µM.

With `CCOC(=O)c1ccc(-c2ccc(Cl)cc2)[nH]1`, the TGI in the assay on HS 578T breast, with HT29 colon, in the assay on M14 melanoma, in the assay on MDA-MB-435, in the assay with NCI-H522 lung and with NCI/ADR-RES ovarian was > 10 µM each time. Also, the TGI in the assay with OVCAR-8 ovarian, with TK-10 renal and with UACC-257 melanoma was > 10 µM each time.

Take `O=C(NCCN1CCOCC1)c1ccc(I)cc1`: the TGI in the assay on HS 578T breast, with HT29 colon, with M14 melanoma, with MCF7 breast, in the assay on NCI/ADR-RES ovarian and in the assay on OVCAR-8 ovarian was > 100 µM in each case. Further, the TGI in the assay with TK-10 renal was > 100 µM.
